Source: article PMC4580987, “Catalytic site inhibition of insulin-degrading enzyme by a small molecule induces glucose intolerance in mice” (Nature Communications, 2015)
Several values for one entry are separate records, joined by “and”; a condition that tells them apart may be missing. Equal entries are not always repeated. Entries after “also recorded” stand apart in the source; their conditions may differ.

Legend:
[1] = Pharmacokinetics in mice, intraperitoneal; format: in vivo; settings: C57Bl6/N, mouse, plasma, 30 mg kg^−1, ip, male mice
Description: Three mice per time point were anesthetized with isoflurane and aliquots taken from the retroorbital sinus using sampling heparinated tubes (4 °C) at 10, 20, 30 min, 1, 2 and 4 h after administration of a single dose of ligands. The blood samples were centrifuged (5,000g, 15 min) for plasma separation. Plasma samples were thawed on ice. Aliquots of 50 μl were precipitated with 450 μl of ice-cold acetonitrile containing (R)-N-[3-(1-Hydroxycarbamoylmethyl-2-naphthalen-2-yl-ethyl)-3H-[1,2,3]triazol-4-ylmethyl]-benzamide (0.5 μM) used as internal standard. The samples were vigorously mixed with a vortex and centrifuged at 10,000 r.p.m. at 4 °C for 10 min, and the supernatants were transferred into tubes for LC−MS−MS analysis (Supplementary Table 2). Spiked standard solutions (10, 50, 100, 500, 1,000, 5,000, 10,000 and 50,000 nM) were prepared the same way. The protocol was approved by the ethical comitee CEEA Nord Pas de Calais (CEEA75).

C57BL/6J mice = assay: Oral glucose tolerance test (OGTT) in C57BL/6J mice; format: in vivo, mouse
Description: OGTT and IPGTT were performed on 11 to 16 week-old male or female mice (n=4–7 per experimental group). C57BL/6J mice were purchased from Charles River Laboratories (France), Stock no. 000664. C57BL/6J Ide−/− mice were obtained from Guenette[20] and bred in the animal facility of INSERM U1151. WT C57BL/6J mice of the same genetic background were bred in the same animal facility in parallel. NOD Ide−/− mice were generated by backcrossing C57BL/6J Ide−/− mice with NOD wt mice bred in the animal facility of INSERM U1151 and maintained in this facility together with WT NOD mice. Normoglycemic WT and Ide−/− female NOD mice aged 14 weeks were used for OGTTs. Following a 6 h fasting period, a small tail cut was made, basal blood glucose was determined. […] Fifteen minutes later, blood glucose concentrations were measured before and after (up to 120 min, as shown) oral (2 g kg^−1 or 3 g kg^−1, as shown) or intraperitoneal (1.5 g kg^−1) glucose administration. In one series of OGTTs using 3 g kg^−1 glucose and shown in Fig. 5, groups of WT and Ide−/− were inverted between experiments, such that mice initially treated with vehicle were treated 2 days later with 1 and vice versa. Blood glucose levels were determined using an Accu-Check glucometer (Roche Diagnostics). Areas under the curves (AUC) for OGTT and IPGTT were calculated to evaluate glucose tolerance. Plasma insulin concentrations were measured by ELISA (cat. no. 10-1247-01,Mercodia) in blood samples collected 15 min before and 15 and 90 min relative to oral glucose injection. The protocol was approved by the ethical comitee CEEA Paris Descartes (CEEA34).

Compound: O=C(C[C@@H](Cc1ccc2ccccc2c1)n1cc(CNC(=O)c2ccc(F)cc2)nn1)NO [Compound 1]
- Tmax [1]: 10 min
- half-life [1]: 80 min
- AUC(0-t) ([1]; read-out: AUC0→4h): 4270 ng·h/mL
- Cmax ([1]; DMSO solution): 4100 ng/mL and 9.2 µM
- glucose tolerance in OGTT, WT C57BL/6J (C57BL/6J mice; 50 mg kg^−1 ip, 3 g kg^−1 oral glucose 15 min later): Impairs glucose tolerance in OGTT; also recorded: acute glucose intolerance
- glucose tolerance in OGTT, Ide−/− C57BL/6J (C57BL/6J mice; 50 mg kg^−1 ip, Ide−/− mice): did not develop glucose intolerance
- plasma insulin concentrations in OGTT, Ide−/− C57BL/6J (C57BL/6J mice; 50 mg kg^−1 ip, Ide−/− mice): no effect
- plasma glucose after oral glucose administration (OGTT compared with IPGTT) (C57BL/6J mice; 50 mg kg^−1 ip, oral glucose 2 g kg^−1): significantly increased
- plasma insulin levels in OGTT versus vehicle, WT C57BL/6J (C57BL/6J mice; baseline, 15 and 90 min after glucose load): similar
